Reference: US20240245677A1, “SELECTED COMPOUNDS FOR TARGETED DEGRADATION OF BRD9” (C4 THERAPEUTICS, INC., priority 2021, published 2024)
Converted amounts (≈) assume the structure as drawn.

Assays:
hERG potassium channels = hERG potassium channels (Homo sapiens, UniProt Q12809); assay: cell-based
Procedure: The effects of Compound 1 on the hERG potassium channels were evaluated using the automated patch clamp method (SyncroPatch® 384PE, Nanion Technologies GmbH, Munich, Germany).
CHO cells stably expressing hERG potassium channels (Sophion Bioscience, Inc. Bedford, MA, USA) were used for this test. The cells were cultured in a humidified and air-controlled (5% CO2) incubator at 37° C. The CHO hERG cell culture medium was 500 mL Ham's F-12 medium (Catalog No. 31765035, Invitrogen, Waltham, MA, USA), 50 mL HyClone™ Fetal Bovine Serum (Catalog No. SV30087.03, Cytiva, Marlborough, MA, USA), 1 mL Geneticin™ (G418 Sulfate, 50 mg/mL)) (Catalog No. 10131027, Invitrogen, Waltham, MA, USA), and 1 mL Hygromycin B (50 mg/mL) (Catalog No. 10687010, Invitrogen, Waltham, MA, USA).
The CHO cells were at least two days after plating and more than 75% confluent were used. Before testing, cells were harvested using TrypLE™ and resuspended in the physiological solution at the room temperature.
The solutions in Table 9 were used for the electrophysiological recordings. The physiological solution and external solution were prepared at least one month prior to the experiment. The intracellular solution was prepared in batches, aliquoted, and stored at 4° C. until use.
The stock solutions were further diluted into external solution to achieve final concentrations for testing. A visual check for precipitation was conducted before testing. Final DMSO concentration in external solution was not more than 0.30% for the test compounds.
The voltage command protocol started from a holding potential of −80 mV. Then, the voltage was first stepped to −50 mV for 80 ms for leak subtraction, and then stepped to +20 mV for 4,800 ms to open hERG channels. After that, the voltage was stepped back down to −50 mV for 5,000 ms, causing a “rebound” or tail current, which was measured and collected for data analysis. Finally, the voltage was stepped back to the holding potential of −80 mV for 1,000 ms. This voltage command protocol was repeated every 20,000 msec, and performed continuously during the test of vehicle control and test compounds.
This SyncroPatch hERG assay was conducted at room temperature. The Setup, Prime Chip, Catch and Seal Cells, Amplifier Settings, Voltage and Application Protocols were established with […] (Nanion Technologies GmbH, Munich, Germany). One addition of 40 μL of vehicle was applied, followed by a baseline period of 300 s. Then 40 μL doses of test compounds were added. The exposure of test compound at each concentration was no less than 300 s. The recording for the whole process passed quality control or the well was abandoned and the compound was retested, all automatically set by PatchControl (Nanion Technologies, Munich, Germany). Five concentrations (0.30 μM, 1.00 μM, 3.00 μM, 10.00 μM and 30.00 μM) were tested for each compound. A minimum of 2 replicates per concentration were obtained.
Data analysis was carried out using DataControl® (Nanion Technologies GmbH, Munich, Germany), EXCEL 2013 (Microsoft Corporation, Redmond, WA, USA) and GraphPad Prism 5.0 (GraphPad Software, LLC, San Diego, CA, USA).
Within each recording well, percent of control values were calculated for each test compound concentration current response based on peak current in presence of reference control (current response/peak current)×100%. The Dose-Response curves were fit to the standard Hill equation as shown below: […]
where X is the logarithm of concentration, Ipost cpd/Ipre cpd is the normalized peak current amplitude, Top is 1, and Bottom is equal to 0. Curve-fitting and IC50 calculations were performed by GraphPad Prism 5.0.

G402 tumor xenografts = assay: Antitumor activity in G402 malignant rhabdoid tumor xenograft model; format: in vivo, mouse; details: for TGI: day 21
Procedure: To evaluate the efficacy potential of Compound 1 in the malignant rhabdoid tumor setting, BALB/c nude female mice bearing G402 tumor xenografts (WuXi AppTec, Shanghai, China) were treated with a daily regimen of escalating doses of Compound 1 (10 mg/kg, 30 mg/kg, or 50 mg/kg) or vehicle via oral gavage for 21 days (FIG. 3). Compound 1 was tolerated in this study with all mice except two losing no greater than 8% body weight (FIG. 4). […] One mouse in the 50 mg/kg QD group also experienced accumulating body weight loss to end the study at −17.3% but was never taken off study. […] TGI and One-way ANOVA analyses were performed on day 21, the last day all animals were on study.
The G402 tumor cells were maintained in vitro in McCoy's 5a medium supplemented with 10% fetal bovine serum and 1% Penicillin-Streptomycin at 37° C. in an atmosphere of 5% CO2 in air. The tumor cells were routinely subcultured twice weekly. The cells growing in an exponential growth phase were harvested and counted for tumor inoculation.
Each mouse was inoculated subcutaneously at the right flank with G402 cells (10×10^6) in 0.2 mL of PBS supplemented with Matrigel (PBS:Matrigel=1:1) for tumor development. For efficacy part, the treatments were started when the average tumor volume reaches 175 mm^3.

[1] = Approximate solubility in solvents at 25° C. and 50° C. (visual observation); format: physicochemical; details: thermodynamic from solid, 25° C., target conc. = 250 mg/mL
Procedure: Max. volume of each solvent added was 1 mL. Approximate solubility was determined by visual observation.
Max volume of each solvent added was 1 mL. Approximate solubility was determined by visual observation.

[2] = Crystallization by addition of anti-solvent; format: physicochemical; details: for Comments: form after seeding: add Pattern G as seeds, slurry for 5 days
Procedure: Based on approximate solubility results, about 20 mg of Compound 1 free form Pattern E was dissolved in the minimal amount of good solvent. Anti-solvent was added into the obtained solutions slowly. Precipitates were collected by centrifuged. The solid part (wet cake) were investigated by XRPD.

Chain of hERG potassium channels (Q12809 whole entry): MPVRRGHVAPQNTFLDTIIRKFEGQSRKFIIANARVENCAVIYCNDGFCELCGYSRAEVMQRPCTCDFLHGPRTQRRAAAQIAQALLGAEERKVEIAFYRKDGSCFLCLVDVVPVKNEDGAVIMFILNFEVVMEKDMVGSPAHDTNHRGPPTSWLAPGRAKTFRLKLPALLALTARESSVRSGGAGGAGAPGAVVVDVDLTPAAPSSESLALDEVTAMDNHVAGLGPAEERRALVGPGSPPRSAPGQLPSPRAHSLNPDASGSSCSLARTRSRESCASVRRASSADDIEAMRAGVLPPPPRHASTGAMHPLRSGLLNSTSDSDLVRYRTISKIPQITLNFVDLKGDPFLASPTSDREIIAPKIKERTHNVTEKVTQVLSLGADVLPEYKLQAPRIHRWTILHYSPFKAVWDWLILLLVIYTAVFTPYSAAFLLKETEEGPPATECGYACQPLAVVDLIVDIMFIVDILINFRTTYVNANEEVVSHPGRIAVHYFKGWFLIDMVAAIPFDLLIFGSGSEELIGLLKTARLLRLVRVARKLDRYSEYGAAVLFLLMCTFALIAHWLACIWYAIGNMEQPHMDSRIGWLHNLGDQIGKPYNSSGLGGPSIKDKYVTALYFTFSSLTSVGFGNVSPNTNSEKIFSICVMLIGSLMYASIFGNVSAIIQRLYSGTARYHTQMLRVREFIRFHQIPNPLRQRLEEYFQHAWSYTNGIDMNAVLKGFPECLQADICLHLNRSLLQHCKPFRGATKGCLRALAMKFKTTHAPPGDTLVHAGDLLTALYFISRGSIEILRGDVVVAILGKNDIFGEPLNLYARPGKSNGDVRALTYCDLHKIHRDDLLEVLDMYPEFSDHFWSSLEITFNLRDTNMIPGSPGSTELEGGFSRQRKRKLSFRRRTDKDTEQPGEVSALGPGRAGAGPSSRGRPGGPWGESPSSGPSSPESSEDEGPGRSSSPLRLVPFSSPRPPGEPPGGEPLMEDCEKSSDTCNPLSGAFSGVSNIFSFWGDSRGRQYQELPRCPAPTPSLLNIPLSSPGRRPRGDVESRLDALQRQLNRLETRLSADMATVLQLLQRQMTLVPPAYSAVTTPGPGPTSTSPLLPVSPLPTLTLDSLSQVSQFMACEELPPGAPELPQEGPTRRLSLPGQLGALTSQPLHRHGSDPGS

Question: Which results are given for COc1cc(-c2cn(C)c(=O)c(C)c2C)cc(OC)c1CN1CC[C@H](N2CCN(c3ccc(N[C@H]4CCC(=O)NC4=O)cc3F)CC2)C(F)(F)C1 [Compound 1, (S)-3-((4-(4-((S)-1-(2,6-dimethoxy-4-(1,4,5-trimethyl-6-oxo-1,6-dihydropyridin-3-yl)benzyl)-3,3-difluoropiperidin-4-yl)piperazin-1-yl)-3-fluorophenyl)amino)-piperidine-2,6-dione]?
Answer: IC50 (hERG potassium channels): 2910 nM; HillSlope (hERG potassium channels; human): 1.26; POI (%) (hERG potassium channels; human, 0.3 µM): 12.42%; POI (%) (hERG potassium channels; human, 1 µM): 14.61%; POI (%) (hERG potassium channels; human, 3 µM): 22.59%; POI (%) (hERG potassium channels; human, 10 µM): 19.49%; POI (%) (hERG potassium channels; human, 30 µM): 21.92%; body weight loss, one mouse (G402 tumor xenografts; 10 mg/kg QD group): over 15%; TGI (G402 tumor xenografts; 30 mg/kg/day oral): 73%; body weight change at end of study, one mouse (G402 tumor xenografts; 50 mg/kg QD group): −17.3%; TGI (G402 tumor xenografts; 50 mg/kg/day oral): 78%; body weight loss, all mice except two (G402 tumor xenografts; 10, 30 or 50 mg/kg daily for 21 days): ≤ 8%; Solubility ([1]; organic solvent or mixture, Acetone): 17000 to 25000 µg/mL (≈ 23.9 to 35.2 mM); Solubility ([1]; organic solvent or mixture, Acetonitrile): 6000 to 7000 µg/mL (≈ 8.44 to 9.85 mM); Solubility ([1]; organic solvent or mixture, Ethanol): 5000 to 6000 µg/mL (≈ 7.03 to 8.44 mM); Solubility ([1]; organic solvent or mixture, Ethyl acetate): 5000 to 6000 µg/mL (≈ 7.03 to 8.44 mM); Solubility ([1]; organic solvent or mixture, Heptane): < 5000 µg/mL; Solubility ([1]; organic solvent or mixture, MTBE (Methyl tert-butyl ether)): < 5000 µg/mL; Solubility ([1]; organic solvent or mixture, Methanol): 10000 to 17000 µg/mL (≈ 14.1 to 23.9 mM); Solubility ([1]; organic solvent or mixture, Methanol/water (v:v = 95:5)): 8000 to 13000 µg/mL (≈ 11.3 to 18.3 mM); Solubility ([1]; organic solvent or mixture, THF (Tetrahydrofuran)): > 250000 µg/mL; Solubility ([1]; Water): < 5000 µg/mL; Comments: form after seeding ([2]; 2-MeTHF/110, Heptane/200): for 5 days: Pattern G; Comments: form after seeding ([2]; DCM/200, Heptane/400): Pattern F; Comments: form after seeding ([2]; THF/40, Heptane/160): for 5 days: Pattern G; XRPD ([2]; solvent 1,4-dioxane/200, anti-solvent Heptane/400): Pattern F; Comments ([2]; solvent 2-MeTHF/200, anti-solvent MTBE/200): Oil-like sample; XRPD ([2]; solvent DCM/200, anti-solvent MTBE/400): Pattern F
